For one molecule, melting point results are on record in patent US20100190794A1, “Herbicidally Active Composition” (BASF SE, priority 2007, published 2010).

By melting point is commonly meant the temperature, or range, at which the solid turns liquid.

On to `CN1C(=O)C(Cc2ccccc2)N(C)C(=O)C1=Cc1c(C#N)ccc(F)c1F` (stereo not shown) [Example 15, 2-[5-Benzyl-1,4-dimethyl-3,6-dioxopiperazin-2-ylidenemethyl]-3,4-difluoro-benzonitrile], for which the melting point is 175 °C.
